Read-outs that look alike come from different tables or passages of the source. One block for each compound: values may come before it.
What was measured:
[1] = test system: mouse melanoma B16-BL6 cells; experiment: cells; format: cell-based
Excerpt: MTT reduction method is used.

[2] = test system: mouse breast cancer 4T1 cells; experiment: MTT in-vitro anti-tumor activity test, 4T1; settings: read-out: IC50 cytotoxic effect on 4T1
Description: (§1) Experimental Materials Human non-small cell lung cancer cells A549, mouse breast cancer cells 4T-1 and mouse melanoma B16-BL6 were purchased from American Type Current Collection (ATCC, Rockville, MD, USA). An RPMI-1640 culture solution containing 10% of fetal calf serum and 2% of glutamine was inoculated with the A549, 4T-1 and B16-BL6 cells, and the cells were incubated at 37° C. in a 5% CO2 incubator.
(§2) The compounds were dissolved in DMSO under a sterile condition, and the obtained solutions were diluted to required concentrations by using an RPMI 1640 culture solution, wherein the final concentration of the DMSO was less than 0.5%.
(§3) A549, 4T-1 and B16-BL6 were used as adherent cells, adherent tumor cells in a logarithmic phase were selected, digested with pancreatin, and then prepared into a cell suspension of 5×10^4/ml with a culture medium containing 10% of calf serum, a 96-well culture plate was inoculated with the cell suspension, wherein each well contained 100 μl of the cell suspension, and incubation was carried out for 24 h at 37° C. and 5% CO2. Replacing was carried out with a new culture solution containing the samples to be detected of different concentrations in the experimental groups, replacing was carried out with a culture solution containing a same volume of solvent in the control group, three parallel wells were set in each group, and incubation was carried out for 48 hours at 37° C. and 5% CO2. The supernate was discarded, careful washing was carried out with PBS twice, 100 μl of a freshly prepared culture medium containing 0.5 mg/ml of MTT was added into each well, and incubation was continued to be carried out at 37° C. for 4 h. The supernatant was carefully discarded, 150 μl of DMSO was added, uniform mixing was carried out for 10 min by using a micro oscillator, and the optical density value was measured at 492 nm by using a microplate reader.
(§4) Tumor cell growth inhibition ratio (%)=[A492 (negative control)−A492 (dosing group)]/A492 (negative control)×100%
(§5) The median inhibitory concentration (IC50) of the sample is calculated.

[3] = target: SelH (Homo sapiens, UniProt Q8IZQ5, U44C); experiment: Surface plasmon resonance (SPR) detection of affinity between compounds and SelH; format: binding; settings: for binding activity to the SelH (in words): ranking within the table's compounds
Excerpt: A Cys-deficient Escherichia coli expression system was adopted, which is an effective method to prepare selenoprotein found in recent years. Itsbasic principle is as follows: the characteristic that Cys transfer RNA (tRNACys) can bind to Sec was utilized, and a culture medium which is lack of cysteine (Cys) and rich in Selenium cysteine (Sec) was used for culturing a strain, so that Sec was successfully incorporated into newly expressed protein. According to existing literature reports, a human SelH gene sequence was obtained. Selenocysteine of the SelH is in the middle of the sequence and was terminated here during prokaryotic expression, so that the selenocysteine was mutated from a triple codon TGA of the selenocysteine into TGC, which was synthesized by the Sangon Bioengineering (Shanghai) Co., Ltd. In addition, the adopted SPP system was a single protein production system, and a principle of the SPP system was to induce MazF enzyme (mRNA interfering enzyme for cutting RNA on an ACA nucleotide sequence) to cause growth arrest of thalli. The enzyme can specifically recognize and cut the ACA sequence and prevent synthesis of other background proteins in bacteria. Therefore, when mRNA of the desired target protein was encoded, if the mRNA can be designed into a form lacking an ACA base triplet according to an amino acid encoding rule and was induced at 15° C. by using a pCold vector in cells expressing MazF, the mRNA was not enzymatically hydrolyzed, only a protein derived from the mRNA was generated, and there was little synthesis of other cell proteins.
A pColdI-selH plasmid was transformed into BL21 (DE3) Cys-deficient Escherichia coli, so as to obtain a defective expression bacterium pColdI-selH. Sec was added during culture, making it become selenium-containing protein. The target protein was purified by using Ni^2+ column chelating chromatography, and impure protein was eluted by using an imidazole eluent of different concentrations to finally obtain the target protein. Soluble SelH protein was finally obtained, and SDS-PAGE (sodium dodecyl sulfate polyacrylamide gel electrophoresis) analysis was carried out.
A surface plasmon resonance (SPR) method was adopted to detect the interaction condition of a small molecule and a protein, so that the screening of drugs targeting SelH was carried out.
Purified SelH was diluted into a 50 μg/mL protein solution by using 10 mM sodium acetate with a pH value of 5.5, the purified SelH was fixed onto a CM5 chip by an amino coupling method by using Biacore 8K (GE Healthcard, Sweden), and an RU value was recorded.
An isopentenyl or isovaleryl substituted coumarin compound, or a triterpenoid compound with an isopentenyl-like structure (the compound specifically includes aurapten, protopanaxadiol, iso-imperatorin, decursin, osthol, notoginsenoside R1 and shionon) was dissolved in 100% DMSO to be prepared into solutions containing 5% DMSO of different concentrations (0, 31.25, 62.5, 125, 250 and 500 μM) by using a 1.05×PBS-P^+ buffer solution (GE Healthcare, obtained by diluting 10×PBS-P^+).
A single-cycle kinetics method was adopted, the 1.05×PBS-P^+ buffer solution containing 5% DMSO was used as a Running Buffer, different compounds of different concentrations flowed through the SelH fixed onto the chip, wherein the binding time was 120 s, and the change condition of the RU value was recorded. An equilibrium dissociation constant (KD) was calculated by using software in Biacore 8K so as to evaluate the binding affinity between the protein and the compounds. The SPR detection result of the affinity between compounds and SelH in Embodiment 2 of the present disclosure is as shown in FIG. 1A-G, and the result statistics is as shown in Table 1.
(1) Screening of small molecule drugs by taking SelH as a target A surface plasmon resonance (SPR) method was adopted to detect the interaction condition of a small molecule and a protein, so that the screening of drugs targeting SelH was carried out. […]

[4] = test system: human non-small cell lung cancer cells A549; experiment: MTT in-vitro anti-tumor activity test, A549
Description: as §1, §2, §3, §4, §5

[5] = test system: human non-small cell lung cancer cells A549
Description: as §1, §2, §3, §4, §5

[6] = test system: mouse breast cancer 4T1 cells
Description: as §1, §2, §3, §4, §5

[7] = read-out: IC50 cytotoxic effect on B16-BL6, MTT, 48 hours, Table 1
[8] = SPR Biacore 8K, single-cycle kinetics, Table 1, read-out: Dissociation constant KD of compounds and SelH
[9] = read-out: IC50 cytotoxic effect on A549, MTT, 48 hours, Table 1
[10] = Mus musculus, B16-BL6, 48 h, read-out: IC50 cytotoxic effect on B16-BL6
[11] = SPR Biacore 8K, single-cycle kinetics, Table 3, read-out: KD binding of macrolides and cyclic peptides to SelH
[12] = Homo sapiens, A549, 48 h, read-out: A549 IC50 cytotoxicity
[13] = Mus musculus, B16-BL6, read-out: IC50 cytotoxic effect on B16-BL6, MTT, 48 hours, Table 1
[14] = Homo sapiens, A549, 48 h, read-out: IC50 cytotoxic effect on A549
[15] = SPR Biacore 8K, single-cycle kinetics, Table 2, read-out: Dissociation constant KD of compounds and SelH

Structure (SMILES): CC(C)=CCCC(C)(O)[C@H]1CC[C@]2(C)[C@@H]1[C@H](O)C[C@@H]1[C@@]3(C)CC[C@H](O)C(C)(C)[C@@H]3CC[C@]12C (stereo in doubt) [Protopanaxadiol, protopanoxadiol]
IC50 [1, 7]: 58 µM | IC50 ([2]; MTT, 48 hours): 30.9 µM | Kd [3, 8]: 6.71e-05 µM | binding activity to the SelH (in words) [3]: strongest | IC50 [4, 9]: 54.4 µM

Structure (SMILES): CC(=O)O[C@H](CC=C(C)C)C1=CC(=O)c2c(O)ccc(O)c2C1=O [Acetyl Shikonin, acetyl shikonin]
IC50 [1, 10]: 4.44 µM | Kd [3]: 0.000464 µM | binding activity to the SelH (in words) [3]: strongest

IC50 [1]: 61.9 µM | IC50 [5]: 51.9 µM | IC50 [6]: 37.7 µM | Kd [3, 8]: 1.53e-05 µM
Structure (SMILES): CC(C)=CCC/C(C)=C/COc1ccc2ccc(=O)oc2c1 [Aurapten, aurapten]

Kd [3, 11]: 537 µM | binding activity to the SelH (in words) [3]: weakest
Structure (SMILES): CC[C@H]1OC(=O)[C@H](C)[C@@H](O[C@H]2C[C@@](C)(OC)[C@@H](O)[C@H](C)O2)[C@H](C)[C@@H](O[C@@H]2O[C@H](C)C[C@H](N(C)C)[C@H]2O)[C@](C)(O)C[C@@H](C)CN(C)[C@H](C)[C@@H](O)[C@]1(C)O [Azithromycin, azithromycin]
IC50 [4, 12]: 72.4 µg/mL

Kd [3, 11]: 4.4 µM
Structure (SMILES): CO[C@@H]1[C@@H](O[C@@H]2O[C@H](C)[C@@H](O[C@H]3C[C@@](C)(O)[C@@H](OC(=O)CC(C)C)[C@H](C)O3)[C@H](N(C)C)[C@H]2O)[C@@H](CC=O)C[C@@H](C)C(=O)/C=C/[C@@H]2O[C@H]2C[C@@H](C)OC(=O)C[C@H]1OC(C)=O [Carbomycin, carbomycin]
A549 IC50 cytotoxicity [5]: 11.79 µg/mL

Kd [3, 8]: 0.00205 µM
Structure (SMILES): CC(C)=CC(=O)O[C@H]1Cc2cc3ccc(=O)oc3cc2OC1(C)C [Decursin, decursin]
IC50 [1, 13]: 67.8 µM | IC50 ([2]; Mus musculus, 4T1, 48 h): 38.2 µM | IC50 [4, 14]: 60 µM

Kd [3, 11]: 10.4 µM
Structure (SMILES): CC[C@H]1OC(=O)[C@H](C)[C@@H](O[C@H]2C[C@@](C)(OC)[C@@H](O)[C@H](C)O2)[C@H](C)[C@@H](O[C@@H]2O[C@H](C)C[C@H](N(C)C)[C@H]2O)[C@](C)(O)C[C@@H](C)C(=O)[C@H](C)[C@@H](O)[C@]1(C)O [Erythromycin, erythromycin]
IC50 [4, 12]: 230 µg/mL

Structure (SMILES): CC(C)=CCOc1c2ccoc2cc2oc(=O)ccc12 [Iso-imperatorin, iso-imperatorin]
IC50 [1, 13]: 75.2 µM | IC50 ([2]; Mus musculus, 4T1, 48 h): 48.9 µM | Kd [3, 8]: 7.53e-05 µM | binding activity to the SelH (in words) [3]: strongest | IC50 [4, 14]: 72.5 µM

IC50 [1]: 29 µM | Kd [3, 15]: 2.43 µM
Structure (SMILES): COc1cc(O)c(CC=C(C)C)c2c1C(=O)CC(c1ccc(O)cc1)O2 (stereo not drawn) [Isoxanthohunol, isoxanthohunol]

Kd [3, 15]: 4030 µM | binding activity to the SelH (in words) [3]: weakest
Structure (SMILES): CC(C)=CCc1c(-c2ccc(O)cc2O)oc2c3c(cc(O)c2c1=O)OC(C)(C)C=C3 [Morusin, morusin]
IC50 ([1]; Mus musculus, B16-BL6, read-out: IC50 cytotoxic effect on B16-BL6, MTT, 48 hours, Table 2): 37.9 µM

Structure (SMILES): CC(C)=CCC[C@](C)(O[C@@H]1O[C@H](CO)[C@@H](O)[C@H](O)[C@H]1O)[C@H]1CC[C@]2(C)[C@@H]1[C@H](O)C[C@@H]1[C@@]3(C)CC[C@H](O)C(C)(C)[C@@H]3[C@@H](O[C@@H]3O[C@H](CO)[C@@H](O)[C@H](O)[C@H]3O[C@@H]3OC[C@@H](O)[C@H](O)[C@H]3O)C[C@]12C [Notoginsenoside R1, notoginsenoside R1]
IC50 [1, 7]: 111 µM | IC50 [5]: 126 µM | IC50 [6]: 100 µM | Kd [3, 8]: 563 µM | binding activity to the SelH (in words) [3]: weakest

Structure (SMILES): COc1ccc2ccc(=O)oc2c1CC=C(C)C [Osthol, osthol]
IC50 [1, 7]: 100 µM | IC50 ([2]; MTT, 48 hours): 67.4 µM | Kd [3, 8]: 0.0851 µM | IC50 [4, 9]: 81.2 µM

Structure (SMILES): CC(C)=CC[C@@H](O)C1=CC(=O)c2c(O)ccc(O)c2C1=O [Shikonin, shikonin]
IC50 [1, 10]: 13 µM | Kd [3]: 5.42 µM

Structure (SMILES): CC(C)=CCC[C@]1(C)CC[C@]2(C)[C@H]3CC[C@@]4(C)[C@@H](CCC(=O)[C@@H]4C)[C@]3(C)CC[C@@]2(C)C1 [Shionon, shionon]
IC50 [1, 7]: 93.9 µM | IC50 ([2]; MTT, 48 hours): 82.4 µM | Kd [3, 8]: 0.00676 µM | IC50 [4, 9]: 92.7 µM

Kd [3, 11]: 4.38 µM
Structure (SMILES): CO[C@@H]1[C@@H](O[C@@H]2O[C@H](C)[C@@H](O[C@H]3C[C@@](C)(O)[C@@H](O)[C@H](C)O3)[C@H](N(C)C)[C@H]2O)[C@@H](CC=O)C[C@@H](C)[C@@H](O[C@H]2CC[C@H](N(C)C)[C@@H](C)O2)/C=C/C=C/C[C@@H](C)OC(=O)C[C@H]1O [Spiramycin, spiramycin]
A549 IC50 cytotoxicity ([4]; MTT, 48 hours, Table 3): 18.33 µg/mL

Structure (SMILES): C=C(NC(=O)C(=C)NC(=O)c1csc(C2=N[C@@H]3c4csc(n4)[C@H]4NC(=O)c5csc(n5)[C@H]([C@](C)(O)[C@@H](C)O)NC(=O)[C@H]5CSC(=N5)/C(=C/C)NC(=O)[C@H]([C@@H](C)O)NC(=O)c5csc(n5)[C@]3(CC2)NC(=O)[C@H](C)NC(=O)C(=C)NC(=O)[C@H](C)NC(=O)[C@H]([C@@H](C)CC)N[C@@H]2C=Cc3c([C@H](C)O)cc(nc3[C@H]2O)C(=O)O[C@@H]4C)n1)C(N)=O [Thiostrepton, thiostrepton]
Kd [3, 11]: 19.9 µM | IC50 [4, 12]: 9.66 µg/mL

Structure (SMILES): COc1c(O)cc2oc3cc(O)c(CC=C(C)C)c(O)c3c(=O)c2c1CC=C(C)C [α-mangostin]
IC50 ([1]; read-out: IC50 cytotoxic effect on B16-BL6, MTT, 48 hours, Table 2): 40.2 µM | Kd [3, 15]: 398 µM
